# Reference: patent publication US20260158033A1, “VECABRUTINIB FOR THE TREATMENT OF GRAFT-VERSUS-HOST DISEASE” (Viracta Therapeutics, Inc., priority 2021, published 2026)
# Assays:
# [1] = mouse, in vivo
# Method: (§1) A murine model of sclerodermatous cGVHD was initiated by adoptive transfer of T-cell depleted bone marrow plus whole splenocytes from B10.D2 donors into BALB/c recipients that were previously subjected to sub-lethal irradiation. Total bone marrow and irradiation only groups were included as controls. […] Body weight and clinical symptoms (appearance, activity, skin symptoms, diarrhea, conjunctivitis) were measured throughout the study. Immunophenotyping for B cells and T cells was performed on spleens collected from euthanized mice by flow cytometry at two timepoints (day 40 during treatment and on day 76 post-treatment). Levels of circulating immunoglobulins were measured by multiplex cytokine assay at both timepoints.
# (§2) On day 40 (during treatment) and day 76 (post-treatment) groups of mice were euthanized for immunophenotyping analysis utilizing a 22-color flow cytometry panel. […] Scoring between 0-2 was assigned for each of the parameters (appearance, activity, skin symptoms, diarrhea, conjunctivitis) and totaled for each mouse.
# [2] = test system: murine model of sclerodermatous cGVHD; experiment: Murine model of sclerodermatous cGVHD: clinical GVHD score and symptoms; format: in vivo, mouse (BALB/c recipients, B10.D2 donors)
# Method: as §1, §2
# ITK = biological target: T1, ITK (Homo sapiens, UniProt Q08881); conditions: ITK expressed in T cells; cited from earlier work
# T1 sequence (Q08881 1-620): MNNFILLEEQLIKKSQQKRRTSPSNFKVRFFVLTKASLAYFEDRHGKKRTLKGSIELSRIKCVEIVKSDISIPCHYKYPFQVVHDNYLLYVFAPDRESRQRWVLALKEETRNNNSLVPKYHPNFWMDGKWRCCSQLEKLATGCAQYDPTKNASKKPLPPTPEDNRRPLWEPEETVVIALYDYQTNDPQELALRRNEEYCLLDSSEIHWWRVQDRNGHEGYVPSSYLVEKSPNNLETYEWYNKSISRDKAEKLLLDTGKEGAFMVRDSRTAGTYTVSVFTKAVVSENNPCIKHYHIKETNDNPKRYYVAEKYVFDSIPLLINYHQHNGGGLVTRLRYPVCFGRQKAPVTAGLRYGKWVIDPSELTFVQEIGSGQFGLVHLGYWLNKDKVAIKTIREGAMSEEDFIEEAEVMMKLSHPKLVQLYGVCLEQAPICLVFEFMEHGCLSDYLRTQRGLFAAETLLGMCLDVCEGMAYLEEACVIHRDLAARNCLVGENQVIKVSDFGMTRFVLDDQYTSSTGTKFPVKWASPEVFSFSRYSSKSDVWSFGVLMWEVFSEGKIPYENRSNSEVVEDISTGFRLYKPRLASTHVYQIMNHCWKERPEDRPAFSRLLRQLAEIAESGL
# B cells and T cells = experiment: Immunophenotyping of spleen B cells and T cells by flow cytometry in cGVHD mice; format: in vivo, mouse (BALB/c recipients); conditions: during treatment (day 40)
# Method: as §1, §2
# BTK = BTK (Homo sapiens, UniProt Q06187); conditions: reversible, non-covalent; cited from earlier work
# BTK, sequence (Q06187 whole entry, species assumed): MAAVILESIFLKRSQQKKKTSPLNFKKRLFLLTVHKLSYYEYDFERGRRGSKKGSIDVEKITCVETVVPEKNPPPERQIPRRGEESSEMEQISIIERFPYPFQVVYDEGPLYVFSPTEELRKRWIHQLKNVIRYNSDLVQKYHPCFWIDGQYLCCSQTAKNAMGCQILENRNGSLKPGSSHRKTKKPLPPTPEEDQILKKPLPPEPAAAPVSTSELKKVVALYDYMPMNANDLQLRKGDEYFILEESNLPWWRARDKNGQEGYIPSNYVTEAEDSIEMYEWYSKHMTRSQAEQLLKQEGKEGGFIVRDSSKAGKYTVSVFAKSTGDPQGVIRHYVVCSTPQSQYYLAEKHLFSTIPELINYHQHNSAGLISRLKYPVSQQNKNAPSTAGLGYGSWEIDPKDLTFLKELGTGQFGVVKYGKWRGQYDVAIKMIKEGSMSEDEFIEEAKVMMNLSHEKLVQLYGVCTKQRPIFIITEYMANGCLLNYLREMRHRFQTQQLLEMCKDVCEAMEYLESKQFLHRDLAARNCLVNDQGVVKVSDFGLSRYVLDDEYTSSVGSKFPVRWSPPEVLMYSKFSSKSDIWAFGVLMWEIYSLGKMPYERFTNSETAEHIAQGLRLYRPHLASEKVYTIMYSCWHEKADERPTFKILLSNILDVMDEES
# [3] = test system: circulating immunoglobulins; experiment: Circulating immunoglobulins by multiplex cytokine assay in cGVHD mice; format: in vivo, mouse (BALB/c recipients); conditions: during and post treatment, compared to vehicle
# Method: as §1
smiles,measurement,setting,value
"C=CC(=O)N1CCC[C@@H](n2nc(-c3ccc(Oc4ccccc4)cc3)c3c(N)ncnc32)C1 [Ibrutinib, reference compound]",Body weight post-treatment,[1],recovered body weight
same,Weight loss during treatment compared to vehicle,[1],slightly elevated
"NC(=O)[C@H]1CCN(c2ncnc(N)c2F)C[C@@H]1N1CCC[C@@H](Nc2cc(Cl)cc(C(F)(F)F)c2)C1=O [Vecabrutinib, (3R,3′R,4'S)-1′-(6-amino-5-fluoropyrimidin-4-yl)-3-((3-chloro-5-(trifluoromethyl)phenyl)amino)-2-oxo-[1,3′-bipiperidine]-4′-carboxamide]",Avg. Score Day 58,"[2]; average clinical GVHD score, 0-2 per parameter (appearance, activity, skin symptoms, diarrhea, conjunctivitis) totaled, Day 58, vecabrutinib 50 mg/kg once daily oral gavage, ibrutinib 30 mg/kg in drinking water, day 27 to 45",2.50
same,Avg. Score Day 66,"[2]; average clinical GVHD score, 0-2 per parameter totaled, Day 66, vecabrutinib 50 mg/kg once daily oral gavage, ibrutinib 30 mg/kg in drinking water, day 27 to 45",1.30
same,Avg. Score Day 71,"[2]; average clinical GVHD score, 0-2 per parameter totaled, Day 71, vecabrutinib 50 mg/kg once daily oral gavage, ibrutinib 30 mg/kg in drinking water, day 27 to 45",2.90
same,"Clinical symptoms (appearance, activity, skin irritation, redness, alopecia and diarrhea)","[2]; treated groups, vecabrutinib 50 mg/kg oral, ibrutinib 30 mg/kg drinking water",significantly reduced
same,Clinical score overall compared to ibrutinib,"[2]; vecabrutinib-treated group vs ibrutinib, small sample size",trend toward a more favorable clinical score overall
same,Activity against ITK,ITK,demonstrates activity
same,Activated and proliferating CD4+ and CD8+ T cells,B cells and T cells,reduced
same,B-cell activation,B cells and T cells,reduced
same,B-cell proliferation,B cells and T cells,reduced
same,CD4+ CXCR5+PD-1+ T follicular helper cells,B cells and T cells,reduced
same,CD4+CD25+ FoxP3+ Treg number,B cells and T cells,reduced
same,Cytotoxic granzyme-B+ CD8+ T cells,B cells and T cells,reduced
same,Expression of PD-1 on Tregs,B cells and T cells,reduced
same,Expression of antigen-presentation molecules CD80 and CD86 on B cells,B cells and T cells,unchanged
same,IL-4/5 secreted by B cells,B cells and T cells,less
same,IL-10 secreted by B cells,B cells and T cells,less
same,Number of B220+CD138+ plasma cells,B cells and T cells,reduced
same,Numbers of cytokine secreting CD4+ cells,B cells and T cells,globally reduced
same,Th1/Th2 or Th17/Treg ratios,B cells and T cells,no differences
same,Total B cell numbers,B cells and T cells,retained
same,Total CD3+ T cells,B cells and T cells,reduced
same,BTK inhibition,BTK,potent
same,Body weight post-treatment,[1],recovered body weight
same,Weight loss during treatment compared to vehicle,[1],slightly elevated
same,Circulating levels of IgA,[3],reduced
